Data taken from patent US11077120B2, “Prostaglandin receptor EP2 antagonists, derivatives, compositions, and uses related thereto” (Emory University, priority 2014, dated 2021).

biological target: T1, human EP2 receptors (Homo sapiens, UniProt P43116); assay: cell-based cAMP TR-FRET assay, rightward shift of PGE2 concentration response curve (Schild KB), EP2; settings: Table 1; Schild KB from single antagonist concentration 1 μM; average of 2-3 measurements in duplicate; read-out: EP2 KB
T1 construct: expressed in transfected cells
T1 sequence (P43116 whole entry): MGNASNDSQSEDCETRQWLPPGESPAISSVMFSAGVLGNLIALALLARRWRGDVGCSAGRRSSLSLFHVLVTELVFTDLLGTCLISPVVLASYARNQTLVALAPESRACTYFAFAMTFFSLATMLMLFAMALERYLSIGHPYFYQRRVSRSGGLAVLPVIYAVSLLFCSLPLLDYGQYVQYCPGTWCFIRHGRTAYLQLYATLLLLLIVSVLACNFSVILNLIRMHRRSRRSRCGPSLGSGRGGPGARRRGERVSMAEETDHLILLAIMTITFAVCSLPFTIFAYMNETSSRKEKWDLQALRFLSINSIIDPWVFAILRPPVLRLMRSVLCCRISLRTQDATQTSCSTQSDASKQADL
Experimental: KB value indicates the antagonist concentration required for a twofold rightward shift in the PGE2 dose-response curve. Thus, a lower KB value indicates a higher inhibitory potency.
The synthesis was carried out starting from commercially available 2-methyl indole or 2-trifluoromethyl indoles (11a-c), which on treatment with bromoacetonitrile provided intermediates (12a-c), which then were subjected to lithium aluminum hydride to reduce cyanide to amines. […] Synthesized derivatives were tested by using a cAMP-derived TR-FRET assay, at single concentration (1 μM) to observe a rightward shift of PGE2 (an EP2 agonist) concentration response curve in a C6G cell line that overexpresses human EP2 receptors.
A lower KB value indicates a higher inhibitory potency.
Intracellular cAMP was measured with a cell-based homogeneous time-resolved fluorescence resonance energy transfer (TR-FRET) method (Cisbio Bioassays). […] Endogenous cAMP produced by cells competes with labeled cAMP for binding to the cAMP antibody and thus reduces the FRET signal. Cells stably expressing human DP1, EP2, EP4, or IP receptors were seeded into 384-well plates in 30 μl complete medium (4,000 cells/well) and grown overnight. The medium was carefully withdrawn and 10 μl Hanks' Buffered Salt Solution (HBSS) (Hyclone) containing 20 μM rolipram was added into the wells to block phosphodiesterases. The cells were incubated at room temperature for 0.5-1 h and then treated with vehicle or test compound for 10 min before addition of increasing concentrations of appropriate agonist: BW245C for DP1, PGE2 for EP2 and EP4, or iloprost for IP. The cells were incubated at room temperature for 40 min, then lysed in 10 μl lysis buffer containing the FRET acceptor cAMP-d2 and 1 min later another 10 μl lysis buffer with anti-cAMP-Cryptate was added. After 60-90 min incubation at room temperature, the FRET signal was measured by an Envision 2103 Multilabel Plate Reader (PerkinElmer Life Sciences) with a laser excitation at 337 nm and dual emissions at 665 nm and 590 nm for d2 and Cryptate (50 s delay), respectively. The FRET signal was expressed as: F665/F590×10^4.

SMILES	Kb [nM]
COc1ccc(C(=O)NCCn2c(C)cc3ccccc32)cc1 [Compound 6c]	75.6
CCNc1ccc(C(=O)NCCn2c(C)cc3ccccc32)cc1 [Compound 6d]	15.5
CCCCN(CCCC)c1ccc(C(=O)NCCn2c(C)cc3ccccc32)cc1 [Compound 6h]	68.8
Cc1cc2ccccc2n1CCNC(=O)c1ccc(O)cc1 [Compound 6j]	> 1000
Cc1cc2ccccc2n1CCNC(=O)c1ccc(NC(=N)N)cc1 [Compound 6k]	> 1000
CC(=O)Oc1ccc(C(=O)NCCn2c(C)cc3ccccc32)cc1 [Compound 6m]	150
CC(=O)Nc1ccc(C(=O)NCCn2c(C)cc3ccccc32)cc1 [Compound 6n]	97
Cc1cc2ccccc2n1CCNC(=O)c1ccc(NC(=O)c2ccccc2F)cc1 [Compound 6o]	51
Cc1cc2ccccc2n1CCNC(=O)c1ccc(C(=O)N(C)C)cc1 [Compound 6q]	> 1000
CCN(CC)C(=O)c1ccc(C(=O)NCCn2c(C)cc3ccccc32)cc1 [Compound 6r]	800
Cc1cc2ccccc2n1CCNC(=O)c1ccc(C(=O)OC(C)(C)C)cc1 [Compound 6t]	100
Cc1cc2ccccc2n1CCNC(=O)c1ccc(S(N)(=O)=O)cc1 [Compound 6v]	486
Cc1cc2ccccc2n1CCNC(=O)c1ccc(CNC(=O)OC(C)(C)C)cc1 [Compound 6x]	84
Cc1cc2ccccc2n1CCNC(=O)c1ccc(CN)cc1 [Compound 6y]	690
Cc1cc2ccccc2n1CCNC(=O)c1ccc(CCN)cc1 [Compound 6z]	1220
Cc1cc2ccccc2n1CCNC(=O)c1ccc(N(C)C)c(F)c1 [Compound 7a]	18.1
CC(=O)Nc1ccc(C(=O)NCCn2c(C)cc3ccccc32)cc1F [Compound 7b]	530
COc1ccc(C(=O)NCCn2c(C)cc3ccccc32)cc1F [Compound 7c]	86.8
CCN(CC)c1ccc(C(=O)NCCn2c(C)cc3ccccc32)cc1F [Compound 7d]	4.6
CCN(CC)c1ccc(C(=O)NCCn2c(C)cc3ccccc32)cc1C(F)(F)F [Compound 7e]	310

SMILES	Kb [nM]
CCNc1ccc(C(=O)NCCn2c(C)cc3ccccc32)cc1C(F)(F)F [Compound 7f]	20.2
CCN(CC)c1ccc(C(=O)NCCn2c(C)cc3ccccc32)cc1OC [Compound 7g]	61.2
Cc1cc2ccccc2n1CCNC(=O)c1ccc(C#N)c(F)c1 [Compound 7h]	140
Cc1cc2ccccc2n1CCNC(=O)c1ccc(C#N)cc1F [Compound 7i]	280
Cc1cc2ccccc2n1CCNC(=O)c1ccc(N2CCC(C)CC2)cc1 [Compound 7l]	30.3
CCOC(=O)C1CCN(c2ccc(C(=O)NCCn3c(C)cc4ccccc43)cc2)CC1 [Compound 7m]	500
Cc1cc2ccccc2n1CCNC(=O)c1ccc(N2CCN(C)CC2)cc1 [Compound 7q]	64
Cc1cc2ccccc2n1CCNC(=O)c1cccc(N2CCN(C)CC2)c1 [Compound 7r]	770
Cc1cc2ccccc2n1CCNC(=O)c1cccc(N2CCOCC2)c1 [Compound 7s]	> 1000
Cc1cc2ccccc2n1CCNC(=O)c1ccc(N2CCCN(C)CC2)cc1 [Compound 7v]	148
Cc1cc2ccccc2n1CCNC(=O)c1ccc(-n2cnnn2)cc1 [Compound 7x]	42.2
Cc1cc2ccccc2n1CCNC(=O)c1ccc(-n2nn[nH]c2=S)cc1 [Compound 7y]	32.2
Cc1cc2ccccc2n1CCNC(=O)c1ccc(C2CCCCC2)cc1 [Compound 8b]	120
Cc1cc2ccccc2n1CCNC(=O)c1ccc(N2CCNCC2)cc1 [Compound 8c]	410
CC(=O)N1CCN(c2ccc(C(=O)NCCn3c(C)cc4ccccc43)cc2)CC1 [Compound 8d]	50.2
Cc1cc2ccccc2n1CCNC(=O)c1ccc2[nH]nnc2c1 [Compound 8e]	87.5
Cc1cc2ccccc2n1CCNC(=O)c1ccc2[nH]c(=S)[nH]c(=O)c2c1 [Compound 8f]	84.1
Cc1cc2ccccc2n1CCNC(=O)c1ccc(C2CCCN(C(=O)OC(C)(C)C)C2)cc1 (centres unmarked) [Compound 8g]	95
Cc1cc2ccccc2n1CCNC(=O)c1ccc(C2CCCNC2)cc1 (centres unmarked) [Compound 8h]	> 1000
Cc1cc2ccccc2n1CCNC(=O)c1ccc(OC2CCNCC2)cc1 [Compound 8i]	> 1000

SMILES	Kb [nM]
Cc1cc2ccccc2n1CCNC(=O)c1ccc(CN2CCOCC2)cc1 [Compound 8j]	970
Cc1cc2ccccc2n1CCNC(=O)c1ccc(CN2CCN(C)CC2)cc1 [Compound 8k]	> 1000
Cc1cc2ccccc2n1CCNC(=O)c1cnc(N)nc1 [Compound 8l]	> 1000
Cc1cc2ccccc2n1CCNC(=O)c1cccnc1N [Compound 8p]	520
Cc1cc2ccccc2n1CCNC(=O)C1CCC(c2ncccn2)CC1 (centres unmarked) [Compound 8q]	380
Cc1cc2cc(F)ccc2n1CCNC(=O)c1ccc(N2CCOCC2)cc1 [Compound 8r]	14.9
Cc1cc2cc(F)ccc2n1CCNC(=O)c1ccc(N2CCN(C)CC2)c(F)c1 [Compound 8s]	62.2
CCN(CC)c1ccc(C(=O)NCCn2c(C(F)(F)F)cc3ccccc32)cc1 [Compound 8t]	150
O=C(NCCn1c(C(F)(F)F)cc2ccccc21)c1ccc(N2CCOCC2)cc1 [Compound 8u]	120
CCN(CC)c1ccc(C(=O)NCCn2c(C)nc3ccccc32)cc1 [Compound 8v]	190
CCN(CC)c1ccc(C(=O)NCCn2cnc3ccccc32)cc1 [Compound 8w]	> 1000
CCN(CC)C(=O)c1ccc(C(=O)NCCc2c(C)[nH]c3ccccc23)cc1 [Compound 8y]	> 1000
Cc1[nH]c2ccccc2c1CCNC(=O)c1ccc(N2CCCCC2)cc1 [Compound 9b]	19.8
Cc1[nH]c2ccccc2c1CCNC(=O)c1ccc(N2CCOCC2)c(F)c1 [Compound 9d]	66
Cc1[nH]c2ccccc2c1CCNC(=O)c1ccc(N2CCN(C)CC2)cc1 [Compound 9e]	135
CCNc1ncc(C(=O)NCCc2c(C)[nH]c3ccccc23)cn1 [Compound 9f]	155
Cc1[nH]c2ccccc2c1CCNC(=O)c1cnc(N2CCOCC2)nc1 [Compound 9g]	280
Cc1cc2ccccc2n1CCNC(=O)c1nc2cc(F)ccc2[nH]1 [Compound 9h]	130

same assay, conditions: Table 3; Schild KB from single concentration 1 μM; read-out: EP2 KB

SMILES	Kb [nM]
COc1cc(/C=C/C(=O)N2CCCC(c3c(C)[nH]c4ccccc34)C2)cc(OC)c1OC (centres unmarked) [Compound 16n]	> 1000
COc1cc(/C=C/C(=O)N2CCC(c3c(C)[nH]c4ccccc34)C2)cc(OC)c1OC (centres unmarked) [Compound 16o]	> 1000

same assay, conditions: Table 6

SMILES	EP2 KB
Cc1nc2ccccc2c(C(=O)NCCn2c(C)cc3ccccc32)c1O [TG7-276]	Inactive

same assay, conditions: Table 6; read-out: EP2 KB

SMILES	Kb [nM]
O=C(NCCn1c(C(F)(F)F)cc2ccccc21)c1cc(-c2ccc(F)cc2)n[nH]1 [TG7-266]	8800
Cc1cc(C(=O)NCCn2c(C)cc3ccccc32)n(Cc2ccccc2)n1 [TG7-274]	1330
Cc1ccc2c(O)c(C(=O)NCCn3c(C)cc4ccccc43)cnc2n1 [TG7-275]	1810
Cc1cc2ccccc2n1CCNC(=O)c1cc(CC(C)C)no1 [TG7-277]	172
Cc1cc2ccccc2n1CCNC(=O)c1ccc(N2CCC(C(=O)N(C)C)CC2)cc1 [TG8-64]	190
COc1cc(C(=O)NCCn2c(C)cc3ccccc32)ccc1OCCN(C)C [TG8-75]	1000

same assay, conditions: read-out: EP2 KB

SMILES	Kb [nM]
Cc1cc2ccccc2n1CCNC(=O)c1cccc(S(N)(=O)=O)c1 [Compound 6w]	> 1000
